Measurements as given in US20260001898A1, “Heteroaryl compounds as inhibitors of TYK2/JAK1, composition and application thereof” (Accro Bioscience (HK) Limited, priority 2022, published 2026).
One block for each compound: values may come before it.

Columns and labels:
[1] = system: IFNα induced TYK2/JAK1 mediated STAT activation; assay: Luciferase assay in L929 ISRE cells stimulated with IFN-α; type: cell-based; settings: IFN-α 100 ng/mL
Protocol: • 1. L929 ISRE cells (5000 cells/well) were seeded on 96-well plates and incubated overnight at room temperature-; • 2. The cells were pretreated by adding different concentrations (10 nM, 50 nM, 100 nM, 200 nM or 1000 nM) of the test compounds for 2 hours; • 3. Added IFN-α (100 ng/mL) to stimulate cells for 6 hours; • 4. Removed the upper medium, add PBS (100 μL) and washed, then removed PBS; • 5. Added PLB lysis solution (50 μL) to each well, shook the well for 15 minutes; • 6. Transferred PLB lysis solution (30 μL) to a new 96-well whiteboard, added LAR II reagent (LAR II), then quickly read the 450 nm OD value with a plate washer; • 7. Added Stop & Glo reagent (30 μL), then read the 450 nm OD value using the plate washer. • 8. The final result was the OD value in step 6/OD value in step 7.

[2] = system: IFNα induced CXCL-10 in PBMC; assay: ELISA of IFNα induced CXCL-10 in PBMC; type: cell-based; settings: for IC50: IFNα induced CXCL-10 in PBMC
Protocol: • 1. Soak plate: Add 300 μL 1× washing solution and let stand for 30 seconds. After discarding the washing solution, anhydrous the microporous plate on absorbent paper. • 2. Add standard: Add 100 μL of 2-fold standard to standard well. Add 100 μL standard dilution (serum/plasma sample) or culture medium (cell culture supernatant sample) to blank well. • 3. Add sample: Serum/plasma: Add 50 μL 1× assay buffer and 50 μL sample to sample well. Cell culture supernatant: Add 100 μL cell culture supernatant to sample well. • 4. Add detection antibody: Add 50 μL diluted detection antibody (1:100 diluted) to each well. Make sure steps 4, 5 and 6 are added continuously without interruption. The sampling process was completed within 15 minutes. • 5. Incubation: Use sealing plate film to seal the plate. Shake at 300 rpm and incubate for 2 hours at room temperature. • 6. Washing: Discard the liquid, add 300 μL of washing solution and wash the plate 6 times. Pat anhydrous on blotting paper after each wash. To obtain the desired experimental performance, the residual liquid must be completely removed. • 7. Enzyme addition: Add 100 μL diluted horseradish peroxidase labeled streptavidin to each well (1:100 diluted). • 8. Incubation: Seal the plate with a new sealing film. Shake at 300 rpm and incubate at room temperature for 45 minutes. • 9. Washing: Repeat […]. • 10. Add substrate for color development: Add 100 μL of color development substrate TMB to each well, keep away from light, and incubate at room temperature for 5-30 minutes. • 11. Add Stop Solution: Add 100 μL stop solution to each well. The color changed from blue to yellow. If the color appears green or the color changes unevenly, gently tap the frame of the plate to mix well. • 12. Assay readout: Within 30 minutes, perform dual wavelength detection using a microplate reader to measure the OD at the absorption maximum at 450 nm and reference wavelengths at 570 nm or 630 nm. The calibrated OD value is the measured value at 450 nm minus the measured value at 570 nm or 630 nm.

JAK1 JH1 = JAK1 JH1 (Homo sapiens (Human), UniProt P23458); assay: Competitive binding assay
JAK1 JH1, sequence (P23458 875-1153): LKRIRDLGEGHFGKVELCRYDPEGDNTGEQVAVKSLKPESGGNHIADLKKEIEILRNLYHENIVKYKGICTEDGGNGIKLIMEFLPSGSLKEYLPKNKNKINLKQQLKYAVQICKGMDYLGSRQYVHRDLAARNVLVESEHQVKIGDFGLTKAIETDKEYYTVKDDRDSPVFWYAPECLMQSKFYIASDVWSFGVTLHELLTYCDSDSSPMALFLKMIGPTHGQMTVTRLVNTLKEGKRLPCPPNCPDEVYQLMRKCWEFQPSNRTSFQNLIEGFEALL
Protocol: (§1) For most assays, kinase-tagged T7 phage strains were prepared in an E. coli host derived from the BL21 strain. E. coli were grown to log-phase and infected with T7 phage and incubated with shaking at 32° C. until lysis. The lysates were centrifuged and filtered to remove cell debris. The remaining kinases were produced in HEK-293 cells and subsequently tagged with DNA for qPCR detection. Streptavidin coated magnetic beads were treated with biotinylated small molecule ligands for 30 minutes at room temperature to generate affinity resins for kinase assays. The liganded beads were blocked with excess biotin and washed with blocking buffer (SeaBlock (Pierce), 1% BSA, 0.05% Tween 20, 1 mM DTT) to remove unbound ligand and to reduce non-specific binding. […] Test compounds were prepared as 111X stocks in 100% DMSO. Dissociation constants (Kds) were determined using an 11-point 3-fold compound dilution series with three DMSO control points. […] The compounds were then diluted directly into the assays such that the final concentration of DMSO was 0.9%. All reactions performed in polypropylene 384-well plate. Each was a final volume of 0.02 ml. […] The beads were then re-suspended in elution buffer (1×PBS, 0.05% Tween 20, 0.5 μM nonbiotinylated affinity ligand) and incubated at room temperature with shaking for 30 minutes. The kinase concentration in the eluates was measured by qPCR.
(§2) An 11-point 3-fold serial dilution of each test compound was prepared in 100% DMSO at 100× final test concentration and subsequently diluted to 1× in the assay (final DMSO concentration=1%). Most Kds were determined using a compound top concentration=30,000 nM. If the initial Kd determined was <0.5 nM (the lowest concentration tested), the measurement was repeated with a serial dilution starting at a lower top concentration.
(§3) Binding constants (Kds) were calculated with a standard dose-response curve using the Hill equation: […]
(§4) The Hill Slope was set to −1.
(§5) Curves were fitted using a non-linear least square fit with the Levenberg-Marquardt algorithm.

JAK1 JH2 = JAK1 JH2 (Homo sapiens (Human), UniProt P23458); assay: Competitive binding assay
JAK1 JH2, sequence (P23458 583-855): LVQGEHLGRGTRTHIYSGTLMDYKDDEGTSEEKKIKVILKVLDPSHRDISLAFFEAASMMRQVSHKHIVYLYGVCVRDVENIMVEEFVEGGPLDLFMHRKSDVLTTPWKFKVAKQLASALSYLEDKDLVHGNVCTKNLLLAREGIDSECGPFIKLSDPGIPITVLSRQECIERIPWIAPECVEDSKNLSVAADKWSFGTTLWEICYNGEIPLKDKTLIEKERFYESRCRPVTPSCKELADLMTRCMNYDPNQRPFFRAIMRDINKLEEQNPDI
Protocol: as §1, §2, §3, §4, §5

JAK2 JH1 = JAK2 JH1 (Homo sapiens (Human), UniProt O60674); assay: Competitive binding assay
JAK2 JH1, sequence (O60674 849-1124): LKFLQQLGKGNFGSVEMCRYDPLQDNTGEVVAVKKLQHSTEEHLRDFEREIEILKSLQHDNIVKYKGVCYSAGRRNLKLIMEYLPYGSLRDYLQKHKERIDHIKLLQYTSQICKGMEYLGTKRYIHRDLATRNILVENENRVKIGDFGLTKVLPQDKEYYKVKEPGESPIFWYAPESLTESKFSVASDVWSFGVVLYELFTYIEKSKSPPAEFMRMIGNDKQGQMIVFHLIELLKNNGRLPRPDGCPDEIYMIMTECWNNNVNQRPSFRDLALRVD
Protocol: as §1, §2, §3, §4, §5

JAK3 JH1 = JAK3 JH1 (Homo sapiens (Human), UniProt P52333); assay: Competitive binding assay
JAK3 JH1, sequence (P52333 822-1111): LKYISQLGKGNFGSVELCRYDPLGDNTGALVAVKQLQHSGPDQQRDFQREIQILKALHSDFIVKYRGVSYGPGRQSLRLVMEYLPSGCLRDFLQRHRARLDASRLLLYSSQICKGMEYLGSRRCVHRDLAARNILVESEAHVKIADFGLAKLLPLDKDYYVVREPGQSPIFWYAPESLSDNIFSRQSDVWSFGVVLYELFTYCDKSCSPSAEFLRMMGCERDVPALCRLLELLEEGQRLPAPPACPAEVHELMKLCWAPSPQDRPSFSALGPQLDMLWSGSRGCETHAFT
Protocol: as §1, §2, §3, §4, §5

TYK2 JH1 = TYK2 JH1 (Homo sapiens (Human), UniProt P29597); assay: Competitive binding assay
TYK2 JH1, sequence (P29597 897-1176): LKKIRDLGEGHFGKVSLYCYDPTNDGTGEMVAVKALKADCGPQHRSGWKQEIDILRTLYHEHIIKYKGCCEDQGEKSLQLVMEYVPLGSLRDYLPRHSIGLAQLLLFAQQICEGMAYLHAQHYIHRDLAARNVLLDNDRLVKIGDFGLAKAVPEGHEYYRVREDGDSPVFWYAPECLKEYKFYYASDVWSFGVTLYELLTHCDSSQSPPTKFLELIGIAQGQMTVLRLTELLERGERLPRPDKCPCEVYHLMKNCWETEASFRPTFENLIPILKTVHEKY
Protocol: as §1, §2, §3, §4, §5

TYK2 JH2 = TYK2 JH2 (Homo sapiens (Human), UniProt P29597); assay: Competitive binding assay
TYK2 JH2, sequence (P29597 589-875): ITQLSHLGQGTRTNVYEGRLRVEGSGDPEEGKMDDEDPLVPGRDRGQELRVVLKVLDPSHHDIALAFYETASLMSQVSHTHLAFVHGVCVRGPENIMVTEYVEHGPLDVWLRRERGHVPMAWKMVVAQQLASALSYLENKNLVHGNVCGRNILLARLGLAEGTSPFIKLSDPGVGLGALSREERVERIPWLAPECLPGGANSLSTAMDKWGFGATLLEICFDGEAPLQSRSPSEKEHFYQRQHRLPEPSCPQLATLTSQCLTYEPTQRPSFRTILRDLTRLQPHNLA
Protocol: as §1, §2, §3, §4, §5

[3] = system: JAK1 JH2 and TYK2 JH2 versus JAK1 JH1, JAK2 JH1, JAK3 JH1 and TYK2 JH1; assay: Competitive binding assay, selectivity JH2 versus JH1 domains
Protocol: For most assays, kinase-tagged T7 phage strains were prepared in an E. coli host derived from the BL21 strain. E. coli were grown to log-phase and infected with T7 phage and incubated with shaking at 32° C. until lysis. The lysates were centrifuged and filtered to remove cell debris. The remaining kinases were produced in HEK-293 cells and subsequently tagged with DNA for qPCR detection. Streptavidin coated magnetic beads were treated with biotinylated small molecule ligands for 30 minutes at room temperature to generate affinity resins for kinase assays. The liganded beads were blocked with excess biotin and washed with blocking buffer (SeaBlock (Pierce), 1% BSA, 0.05% Tween 20, 1 mM DTT) to remove unbound ligand and to reduce non-specific binding. […] Test compounds were prepared as 111X stocks in 100% DMSO. Dissociation constants (Kds) were determined using an 11-point 3-fold compound dilution series with three DMSO control points. […] The compounds were then diluted directly into the assays such that the final concentration of DMSO was 0.9%. […] The kinase concentration in the eluates was measured by qPCR.
An 11-point 3-fold serial dilution of each test compound was prepared in 100% DMSO at 100× final test concentration and subsequently diluted to 1× in the assay (final DMSO concentration=1%). Most Kds were determined using a compound top concentration=30,000 nM. […]

JAK1/JAK2 pathway = assay: Western blot p-STAT1/STAT1 in IFN-γ-stimulated HT-29 cells; type: cell-based; settings: IFN-γ 100 ng/mL
Protocol: HT-29 cells were digested by trypsin and suspended in Dulbecco's Modified Eagle Medium (DMEM) and counted. The tested compounds were added into the 6 well plates (400 000/per well). After 2 hours, IFN-γ (100 ng/mL) was added to stimulate cells for 30 minutes. The cells were collected and lysed with protein lysate. The protein was quantitatively tested by BCA kit. Finally, p-STAT1/STAT1 and internal reference protein β-actin were detected by Western blot.

JAK2 and TYK2 = settings: some studies, background; cited from earlier work
JAK2/JAK2 pathway = assay: Western blot p-STAT3/STAT3 in TPO-stimulated HEL cells; type: cell-based; settings: TPO 100 ng/mL
Protocol: HEL cells were digested by trypsin, re-suspended in 1640 medium and counted. The compounds to be measured were added to 6 well plates (1 million/per well) for 2 hours, and then thrombopoietin (TPO)(final concentration: 100 ng/mL) was added to stimulate cells for 30 minutes. The cells were collected and lysed with protein lysate. The protein was quantitatively tested by bicinchoninic acid (BCA) kit. Finally, p-STAT3/STAT3 and internal reference protein β-actin were detected by Western blot.

- Kd (JAK1 JH1): 6900 ± 900 nM
- affinity to JAK1 JH1 (JAK1 JH1): weak affinity
- Kd (JAK1 JH2): 0.02 ± 0.002 nM
- affinity to JAK1 JH2 (JAK1 JH2): strong affinity
- Kd (JAK2 JH1): 790 ± 40 nM
- affinity to JAK2 JH1 (JAK2 JH1): weak affinity
- Kd (JAK3 JH1): 210 ± 15 nM
- affinity to JAK3 JH1 (JAK3 JH1): weak affinity
- Kd (TYK2 JH1): 550 ± 50 nM
- affinity to TYK2 JH1 (TYK2 JH1): weak affinity
- Kd (TYK2 JH2): 0.0044 ± 0.003 nM
- affinity to TYK2 JH2 (TYK2 JH2): strong affinity
- selectivity to bind JAK1 JH2 and TYK2 JH2 than JAK1 JH1, JAK2 JH1, JAK3 JH1 and TYK2 JH1 [3]: more than 10,000 times
Compound: COc1c(Nc2cc(NC(=O)C3CC3)nnc2C(N)=O)cccc1-c1cc(P(=O)(C2CC2)C2CC2)n(C)n1 [Compound A1, 6-(cyclopropanecarboxamido)-4-((3-(5-(dicyclopropylphosphoryl)-1-methyl-1H-pyrazol-3-yl)-2-methoxyphenyl)amino)pyridazine-3-carboxamide]
- inhibition at 0.05 µM ([1]; Mus musculus, 50 nM compound, read-out: Inhibitory activity % (50 nM)): 34%
- inhibition at 0.2 µM ([1]; Mus musculus, 200 nM compound, read-out: Inhibitory activity % (200 nM)): 87%
- inhibition at 1 µM ([1]; Mus musculus, 1000 nM compound, read-out: Inhibitory activity % (1000 nM)): 98%
- inhibition of IFNα induced CXCL-10 in PBMC [2]: effectively inhibited IFNα induced CXCL-10 in PBMC
- IC50 [2]: 6.3 nM
- effect on downstream STAT1 phosphorylation induced by IFN-γ (JAK1/JAK2 pathway) (JAK1/JAK2 pathway): inhibited JAK1/JAK2 pathway in a concentration-dependent manner

Compound: Cn1cc(Nc2nccc(N3C[C@H]4CC[C@@H](C3)N4C(=O)[C@@H]3CC3(F)F)n2)cn1 [PF-06700841]
- ratio of JAK2 IC50/TYK2 IC50 (JAK2 and TYK2): about 3.3

Compound: BMS986165 [reference compound]
- Inhibitory activity % (50 nM) ([1]; 50 nM compound): 62%
- Inhibitory activity % (200 nM) ([1]; 200 nM compound): 94%
- Inhibitory activity % (1000 nM) ([1]; 1000 nM compound): 99%
- IC50 [2]: 16.6 nM
- effect on TPO-induced downstream STAT3 phosphorylation (JAK2/JAK2 pathway) (JAK2/JAK2 pathway): had no effect on TPO-induced downstream STAT3 phosphorylation
- effect on downstream STAT1 phosphorylation induced by IFN-γ (JAK1/JAK2 pathway) (JAK1/JAK2 pathway): had no effect on downstream STAT1 phosphorylation induced by IFN-γ
